# Where two headings read alike, the source gives them in different places.
# Tests used:
# MDA-MB231 cell lines = assay: MTT cell viability assay (IC50); assay type: cell-based; conditions: Homo sapiens, MDA-MB-231, single dose of treatment, 10^−9 to 10^−4 M, 570 nm absorbance, FIG. 1, read-out: IC50 (half-maximal inhibitory concentration), MTT cell viability
# Protocol: (§1) HCT 116 colon cancer and MDA-MB231 breast cancer cell lines are used in cell culture experiments.
# (§2) Cells were treated with high-glucose DMEM medium (Biosera) supplemented with 10% FBS (Gibco) and 1× penicillin/streptomycin (Multicell). The assay was designed to contain 10,000 cells for each well of 24-well cell culture plates before being treated with inhibitors.
# (§3) Compound of formula I was dissolved with DMSO as 20 mM stock. 24 hours later, the solution was diluted in DMEM with 10% FBS and final concentration of vehicle DMSO was 0.5% at maximum. Therefore, the vehicle group included 0.5% DMSO concentration in experiments. Intensive cultivation of cells causes a decrease in proliferation capacity.
# The MTT cell viability assay was used to detect values of half-maximal inhibitory concentration (IC50). Different concentrations of compound of formula I ranging between 10^−9 to 10^−4 M were tested on MDA-MB231 cell lines with single dose of treatment. 570 nm absorbance values were recorded and IC50 values were calculated by dose response—inhibition curves and nonlinear regression analysis on Graphpad Prism 8 software.
# [1] = test system: HCT 116 colon cancer and MDA-MB231 breast cancer cell lines; assay: MTT cell proliferation assay (time course); assay type: cell-based; conditions: for cytotoxicity at 100 µM: read-out: cell viability decrease
# Protocol: as §1, §2, §3
# For proliferation inhibition analysis, cells were seeded in 24 well plates at 1×10^4 cells/well cells overnight without drug treatment. During the cell proliferation experiments, we performed five days of treatment in each cell line and repeated the experiments three times to check each experiment. No significant difference in cell viability was observed after the third day. Therefore, cells with different drug concentrations were treated for two days. After 48 hours, MTT was applied to the cells and incubated at 37° C. for 4 hours, formazan was solubilized with DMSO (Sigma-Aldrich, St. Louis, USA) and absorbance was measured at 570 nm.
# Molecule concentration was 100 μM, the lower concentrations were not shown. Vehicle represents the groups treated with only %0.5 DMSO and Untreated represents no molecule treated group. Molecule responses were evaluated by cell viability which is obtained by spectrophotometric analysis of cells upon MTT treatment at 12 h, 24 h, 48 h and 72 h. […] Statistical significance in graphs was determined by comparing each treatment group with DMSO control using ANOVA testing and significance is considered as p<0.001 (FIG. 2).
# HCT-116 cells = assay: Microscopic evaluation of cells (proliferation, apoptotic morphology); assay type: cell-based; conditions: FIG. 3
# Protocol: Cells were photographed and observed under microscope for three days.
# As a result, cell viability decreased by 40% at the end of the first day and reached 60% at the end of the third day. Any cell proliferation change and apoptotic cell morphology were not observed in the untreated and vehicle groups. Moreover, differences in cell morphology were also observed. […] Upon treatment with the compound of formula I according to present invention with 100 μM concentration, cells having the morphology of apoptotic cells were observed starting from the 3rd hour.
# MDM2 protein = MDM2 protein (Homo sapiens, UniProt Q00987); conditions: versus a natural p53 peptide; cited from earlier work
# Chain of MDM2 protein (Q00987 whole entry, species assumed): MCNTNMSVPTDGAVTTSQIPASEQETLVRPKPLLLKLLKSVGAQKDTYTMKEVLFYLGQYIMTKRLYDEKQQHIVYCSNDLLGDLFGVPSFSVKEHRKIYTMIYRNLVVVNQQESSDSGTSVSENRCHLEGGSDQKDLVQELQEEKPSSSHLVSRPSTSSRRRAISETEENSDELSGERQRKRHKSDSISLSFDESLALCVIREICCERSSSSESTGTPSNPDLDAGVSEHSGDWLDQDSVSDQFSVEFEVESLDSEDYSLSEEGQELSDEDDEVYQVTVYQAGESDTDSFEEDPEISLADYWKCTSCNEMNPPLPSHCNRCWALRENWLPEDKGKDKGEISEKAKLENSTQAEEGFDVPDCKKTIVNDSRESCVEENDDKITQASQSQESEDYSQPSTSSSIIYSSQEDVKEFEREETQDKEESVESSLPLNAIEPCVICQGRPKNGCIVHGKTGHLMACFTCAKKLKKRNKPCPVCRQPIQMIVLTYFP
IC50 (MDA-MB231 cell lines),Compound,"cell viability compared to vehicle and untreated groups ([1]; 100 μM, MTT at 12 h, 24 h, 48 h and 72 h, ANOVA, p<0.001, FIG. 2)",cytotoxicity at 100 µM ([1]; end of the first day),cytotoxicity at 100 µM ([1]; end of the third day),time from which cells having the morphology of apoptotic cells were observed (HCT-116 cells; 100 μM concentration),apoptotic activity under microscope (HCT-116 cells; HCT-116),"proliferation under microscope (HCT-116 cells; HCT-116, observed for three days, versus vehicle and untreated)",binding affinity to MDM2 relative to natural p53 peptide (MDM2 protein)
77 µM,O=C(O)CC(NC(=O)Cc1c[nH]c2ccccc12)c1ccc(F)cc1 (centres unmarked) [compound of formula I],statistically significant difference,40%,60%,3 hour,clear apoptotic activity from the twelfth hour,reduced proliferation,
,MI-319,,,,,,,500 fold

# From patent US12595232B2, “DRG-MDM2-1 for use as a novel Mouse Double Minute 2 (MDM2) inhibitor” (BAHCESEHIR UNIVERSITESI, priority 2020, dated 2026)
